Test results published in article PMC9732821, “Neurotrophic Activity and Its Modulation by Zinc Ion of a Dimeric Peptide Mimicking the Brain-Derived Neurotrophic Factor N-Terminal Region” (ACS Chemical Neuroscience, 2022).

Experiments:
[1] = test system: undifferentiated cells; conditions: cited from earlier work
Source text: Previous functional studies agree in identifying the N-terminal region as a pivotal NT domain for the binding selectivity and activation of Trks.[25]−[27] However, most of these information were obtained from the NGF-TrkA system.[28],[29] On the other hand, the BDNF N-terminal region has been less investigated. […] Mo ...

[2] = test system: ERK; experiment: competition experiments, ERK phosphorylation with BDNF plus d-bdnf in differentiated SH-SY5Y cells; assay type: cell-based, human; conditions: BDNF 1 nM + d-bdnf 10 nM-100 µM, or d-bdnf 10 µM + BDNF 0.074 nM–10 nM; 10 min; 2 independent replicas
Source text: The possibility of mimicking the function of the full-length BDNF protein by using a linear peptide fragment encompassing the first 12 amino acids of the mature NT N-terminal was already postulated.[31] Here, we named this sequence as m-bdnf (Figure 1A) and performed a systematic comparison between the performance of the full-length human BDNF produced recombinantly in Escherichia coli([32]) and (i) m-bdnf, (ii) a dimeric peptide displaying two copies of the m-bdnf sequence covalently bound by a disulfide bridge (d-bdnf), and (iii) a monomeric peptide displaying the scrambled sequence of m-bdnf (s-bdnf). We first investigated the ability of these peptides to activate the TrkB receptor. […] Specifically, an EC50 concentration of BDNF (1 nM) or of d-bdnf (10 μM) was used in combination with the increasing concentration of d-bdnf and BDNF, respectively, and the increase of ERK phosphorylation was assessed. […] Of note, we also performed a non-permeabilizing immunofluorescence analysis to quantify the membrane-bound BDNF in differentiated SH-SY5Y cells in the absence or presence of BDNF and d-bdnf (Figure S1C,D). […] The same increment was not observed upon treatment with the d-bdnf peptide, while instead we measured a slight (∼18%) decrease of the signal possibly due to the ability of the peptide to displace endogenous BDNF at the tested dose (10 μM). […]

[3] = potentiometric titration, protonation constants; assay type: physicochemical; conditions: 298 K
Procedure: Potentiometric measurements were carried out to give insight into the coordination environment of Zn^2+ bound to the d-bdnf peptide (Figure S5). […] The four protonation equilibria of the aspartic and glutamic residues partly overlap but, in agreement with the literature data, the aspartic β-carboxylic group is more acidic than glutamic γ-carboxylic one.[48] The potentiometric titrations were carried out exploring 0.9:1 and 2.2:1 metal to ligand molar ratio. […] The peptide forms two complex species, [ZnLH] and [ZnL]. The first one is the predominant at pH = 6, and the calculated stability constant value [logK(111) = logβ(111) – logK(011) = 5.71] indicates the involvement of three nitrogen atoms in the metal coordination environment. The [ZnL] species display a stability constant value, logβ = 7.15, higher than that of protonated species indicative of the involvement of a further nitrogen atom in the metal binding mode. In this complex species, Zn^2+ is bound to four nitrogen atoms with the involvement of two amino and two imidazole (2NH2,2NIm coordination mode). […]
Potentiometric measurements
Potentiometric titrations were carried out on a Titrando 905 automatic, using a combined glass-Ag/AgCl electrode (Metrohm, Switzerland). Solutions (2.0 mL) were thermostated at 298 K and in argon atmosphere. The ionic strength was 0.1 M in KNO3. A 0.1 M solution of KOH was used to titrate solutions containing either the peptides only (protonation constants) or the peptides with Zn2+ (complexation constants). The peptide concentrations range used was 1-2 mM in both series of experiments. At least three independent titrations were performed. Starting pH value was adjusted to 2.4 by adding HNO3 0.2 M. The titrations were carried out up to pH 8.5. Metal ion/ligand ratios between 0.9:1 and 2.2:1 were employed. To avoid systematic errors and verify reproducibility, the EMF values of each experiment were recorded at different time intervals. The data were analyzed by […]
using HYPERQUAD 2003 program 17. […]

[4] = species LH 12 (NH2), 0.1 M KNO3
[5] = species LH 13 (His), 0.1 M KNO3
[6] = species LH 14 (His), 0.1 M KNO3
[7] = species LH 15 (COO), 0.1 M KNO3
[8] = species LH 16 (COO), 0.1 M KNO3
[9] = species LH 17 (COO), 0.1 M KNO3
[10] = species LH 18 (COO), 0.1 M KNO3

Row | Substance | proliferative capacity [1] | competition / additivity on ERK phosphorylation [2] | logk (stepwise protonation, pK) ([3]; species LH 11 (NH2), 0.1 M KNO3) | log (protonation constant) ([3]; species LH 11 (NH2), 0.1 M KNO3, at least three titrations) | log (protonation constant) [3, 4] | logk (stepwise protonation, pK) [3, 4] | log (protonation constant) [3, 5] | logk (stepwise protonation, pK) [3, 5] | log (protonation constant) [3, 6] | logk (stepwise protonation, pK) [3, 6] | log (protonation constant) [3, 7] | logk (stepwise protonation, pK) [3, 7] | log (protonation constant) [3, 8] | logk (stepwise protonation, pK) [3, 8] | log (protonation constant) [3, 9] | logk (stepwise protonation, pK) [3, 9] | log (protonation constant) [3, 10] | logk (stepwise protonation, pK) [3, 10]
1 | HSDPARRGELSV-NH2 [m-bdnf, linear peptide fragment encompassing the first 12 amino acids of the mature NT N-terminal] | displays proliferative capacity in undifferentiated cells | – | – | – | – | – | – | – | – | – | – | – | – | – | – | – | – | –
2 | HSDPARRGELSVC-C-VSLEGRRAPDSH (disulfide) [d-bdnf] | – | neither antagonist nor additive effects | 7.59 | 7.59 | 14.75 | 7.16 | 20.71 | 5.96 | 26.03 | 5.32 | 30.69 | 4.66 | 34.90 | 4.20 | 38.44 | 3.55 | 41.75 | 3.31
